Data from the kinase profiling compilation of Christmann-Franck et al. (2016).

Key:
Experiment in all cases: radiometric filter-binding kinase assay, Kinase HotSpot
Conditions in all cases: compound 0.5 µM; ATP 10 µM
[1] = biological target: ADRBK1 (human) (UniProt P25098)
[2] = biological target: AKT3 (human) (UniProt Q9Y243)
[3] = biological target: ALK (human) (UniProt Q9UM73)
[4] = biological target: BLK (human) (UniProt P51451)
[5] = biological target: BRSK2 (human) (UniProt Q8IWQ3)
[6] = biological target: CAMK1 (human) (UniProt Q14012)
[7] = biological target: CDK4 CCND1 (human) (UniProt P24385+P11802)
[8] = biological target: CHEK1 (human) (UniProt O14757)
[9] = biological target: CLK2 (human) (UniProt P49760)
[10] = biological target: CSNK1E (human) (UniProt P49674)
[11] = biological target: CSNK1G1 (human) (UniProt Q9HCP0)
[12] = biological target: DDR2 (human) (UniProt Q16832)
[13] = biological target: DYRK3 (human) (UniProt O43781)
[14] = biological target: EPHB1 (human) (UniProt P54762)
[15] = biological target: HIPK1 (human) (UniProt Q86Z02)
[16] = biological target: IKBKE (human) (UniProt Q14164)
[17] = biological target: IRAK4 (human) (UniProt Q9NWZ3)
[18] = biological target: LTK (human) (UniProt P29376)
[19] = biological target: MAP2K1 (human) (UniProt Q02750)
[20] = biological target: MAP2K2 (human) (UniProt P36507)
[21] = system: MAP2K6 (human), P52564 [S207E/T211E]
[22] = biological target: MAP3K10 (human) (UniProt Q02779)
[23] = biological target: MAP3K14 (human) (UniProt Q99558)
[24] = biological target: MAP3K8 (human) (UniProt P41279)
[25] = biological target: MAPK11 (human) (UniProt Q15759)
[26] = biological target: MUSK (human) (UniProt O15146)
[27] = biological target: OXSR1 (human) (UniProt O95747)
[28] = biological target: PAK3 (human) (UniProt O75914)
[29] = biological target: PAK6 (human) (UniProt Q9NQU5)
[30] = biological target: PLK2 (human) (UniProt Q9NYY3)
[31] = biological target: PRKCI (human) (UniProt P41743)
[32] = biological target: PRKD3 (human) (UniProt O94806)
[33] = biological target: PTK2B (human) (UniProt Q14289)
[34] = biological target: ROCK1 (human) (UniProt Q13464)
[35] = biological target: ROCK2 (human) (UniProt O75116)
[36] = biological target: RPS6KB1 (human) (UniProt P23443)
[37] = biological target: SIK2 (human) (UniProt Q9H0K1)
[38] = biological target: SRC (human) (UniProt P12931)
[39] = biological target: STK16 (human) (UniProt O75716)
[40] = biological target: STK17A (human) (UniProt Q9UEE5)
[41] = biological target: STK4 (human) (UniProt Q13043)
[42] = biological target: TSSK1B (human) (UniProt Q9BXA7)

MAP3K8 (human), sequence (P41279 whole entry, looked up): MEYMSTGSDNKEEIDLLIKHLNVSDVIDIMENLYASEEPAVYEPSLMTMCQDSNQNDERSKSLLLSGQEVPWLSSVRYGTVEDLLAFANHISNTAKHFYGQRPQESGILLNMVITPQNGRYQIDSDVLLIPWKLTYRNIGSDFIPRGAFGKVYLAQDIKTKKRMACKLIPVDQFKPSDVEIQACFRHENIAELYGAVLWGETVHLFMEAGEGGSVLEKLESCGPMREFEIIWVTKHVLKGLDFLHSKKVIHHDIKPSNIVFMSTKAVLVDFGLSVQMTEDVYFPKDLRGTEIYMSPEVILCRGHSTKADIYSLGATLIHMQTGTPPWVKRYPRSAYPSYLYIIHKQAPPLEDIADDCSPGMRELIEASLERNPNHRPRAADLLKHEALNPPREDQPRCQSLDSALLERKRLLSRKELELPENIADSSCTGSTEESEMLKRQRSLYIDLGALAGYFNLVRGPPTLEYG
CSNK1G1 (human), sequence (Q9HCP0 whole entry, looked up): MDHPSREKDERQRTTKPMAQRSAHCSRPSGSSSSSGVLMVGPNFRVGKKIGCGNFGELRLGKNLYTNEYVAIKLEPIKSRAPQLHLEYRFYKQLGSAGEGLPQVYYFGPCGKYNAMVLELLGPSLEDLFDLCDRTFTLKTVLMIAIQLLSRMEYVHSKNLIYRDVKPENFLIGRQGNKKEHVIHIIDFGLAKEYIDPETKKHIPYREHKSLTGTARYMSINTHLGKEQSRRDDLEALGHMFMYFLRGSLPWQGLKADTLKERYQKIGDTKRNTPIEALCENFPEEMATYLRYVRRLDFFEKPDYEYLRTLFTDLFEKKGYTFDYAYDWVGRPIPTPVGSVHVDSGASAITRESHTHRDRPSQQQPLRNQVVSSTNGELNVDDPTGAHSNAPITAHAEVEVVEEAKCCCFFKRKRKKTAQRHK
PTK2B (human), sequence (Q14289 whole entry, looked up): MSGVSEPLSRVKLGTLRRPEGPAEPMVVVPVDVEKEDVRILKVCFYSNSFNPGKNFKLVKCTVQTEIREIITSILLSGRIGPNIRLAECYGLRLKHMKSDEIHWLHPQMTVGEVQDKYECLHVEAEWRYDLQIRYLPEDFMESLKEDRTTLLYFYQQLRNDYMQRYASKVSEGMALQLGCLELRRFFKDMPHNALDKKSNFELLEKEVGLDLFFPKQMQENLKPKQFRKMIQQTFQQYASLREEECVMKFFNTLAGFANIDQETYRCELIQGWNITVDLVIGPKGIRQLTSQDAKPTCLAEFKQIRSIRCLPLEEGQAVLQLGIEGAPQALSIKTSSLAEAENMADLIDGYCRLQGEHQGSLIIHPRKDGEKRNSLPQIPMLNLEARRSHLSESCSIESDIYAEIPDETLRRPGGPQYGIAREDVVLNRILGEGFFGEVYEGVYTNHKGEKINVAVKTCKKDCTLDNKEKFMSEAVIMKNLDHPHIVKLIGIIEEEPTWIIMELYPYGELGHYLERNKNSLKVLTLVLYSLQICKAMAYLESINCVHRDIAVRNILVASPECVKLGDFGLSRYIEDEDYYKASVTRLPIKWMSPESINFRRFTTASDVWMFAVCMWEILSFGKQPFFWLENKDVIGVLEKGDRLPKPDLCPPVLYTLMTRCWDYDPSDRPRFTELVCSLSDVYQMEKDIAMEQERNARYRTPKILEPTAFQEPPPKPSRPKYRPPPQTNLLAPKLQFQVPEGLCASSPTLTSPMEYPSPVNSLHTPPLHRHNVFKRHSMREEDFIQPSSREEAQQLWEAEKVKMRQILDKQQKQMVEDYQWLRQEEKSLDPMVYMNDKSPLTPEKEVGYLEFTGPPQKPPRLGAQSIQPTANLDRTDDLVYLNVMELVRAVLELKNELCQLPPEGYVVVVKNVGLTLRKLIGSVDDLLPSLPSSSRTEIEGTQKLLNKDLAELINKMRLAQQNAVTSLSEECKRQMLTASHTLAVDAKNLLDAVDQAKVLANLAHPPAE
BRSK2 (human), sequence (Q8IWQ3 whole entry, looked up): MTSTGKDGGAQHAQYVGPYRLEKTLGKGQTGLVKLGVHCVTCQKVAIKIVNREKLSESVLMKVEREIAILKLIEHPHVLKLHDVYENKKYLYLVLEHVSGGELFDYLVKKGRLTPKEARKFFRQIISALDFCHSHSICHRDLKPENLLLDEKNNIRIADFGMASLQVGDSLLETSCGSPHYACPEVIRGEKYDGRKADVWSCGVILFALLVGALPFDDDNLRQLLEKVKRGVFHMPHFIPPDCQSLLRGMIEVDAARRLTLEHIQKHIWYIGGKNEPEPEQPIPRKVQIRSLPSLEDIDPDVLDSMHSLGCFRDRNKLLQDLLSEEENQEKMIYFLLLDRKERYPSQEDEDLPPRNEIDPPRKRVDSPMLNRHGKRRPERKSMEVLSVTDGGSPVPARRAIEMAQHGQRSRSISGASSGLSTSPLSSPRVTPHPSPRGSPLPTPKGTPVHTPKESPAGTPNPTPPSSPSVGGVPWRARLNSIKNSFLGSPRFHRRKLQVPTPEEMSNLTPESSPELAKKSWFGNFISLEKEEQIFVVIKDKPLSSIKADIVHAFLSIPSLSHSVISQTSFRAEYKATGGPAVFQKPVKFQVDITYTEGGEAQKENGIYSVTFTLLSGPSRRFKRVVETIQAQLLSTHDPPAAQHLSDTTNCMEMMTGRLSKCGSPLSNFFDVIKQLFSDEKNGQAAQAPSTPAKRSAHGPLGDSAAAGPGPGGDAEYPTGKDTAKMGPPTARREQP
OXSR1 (human), sequence (O95747 whole entry, looked up): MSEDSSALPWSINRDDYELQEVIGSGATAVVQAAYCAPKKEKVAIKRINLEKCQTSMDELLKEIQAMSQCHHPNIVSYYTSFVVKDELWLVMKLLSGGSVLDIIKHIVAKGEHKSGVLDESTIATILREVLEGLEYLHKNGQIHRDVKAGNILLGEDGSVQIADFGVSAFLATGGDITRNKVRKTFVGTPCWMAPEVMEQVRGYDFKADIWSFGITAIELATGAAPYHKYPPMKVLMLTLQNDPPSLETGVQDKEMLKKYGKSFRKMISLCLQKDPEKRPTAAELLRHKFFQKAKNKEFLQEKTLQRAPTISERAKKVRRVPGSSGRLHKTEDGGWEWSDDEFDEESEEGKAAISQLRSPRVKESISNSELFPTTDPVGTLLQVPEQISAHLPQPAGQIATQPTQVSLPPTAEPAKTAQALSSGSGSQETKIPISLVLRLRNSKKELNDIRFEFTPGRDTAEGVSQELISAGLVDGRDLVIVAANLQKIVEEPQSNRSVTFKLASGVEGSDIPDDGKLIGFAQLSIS
ROCK2 (human), sequence (O75116 whole entry, looked up): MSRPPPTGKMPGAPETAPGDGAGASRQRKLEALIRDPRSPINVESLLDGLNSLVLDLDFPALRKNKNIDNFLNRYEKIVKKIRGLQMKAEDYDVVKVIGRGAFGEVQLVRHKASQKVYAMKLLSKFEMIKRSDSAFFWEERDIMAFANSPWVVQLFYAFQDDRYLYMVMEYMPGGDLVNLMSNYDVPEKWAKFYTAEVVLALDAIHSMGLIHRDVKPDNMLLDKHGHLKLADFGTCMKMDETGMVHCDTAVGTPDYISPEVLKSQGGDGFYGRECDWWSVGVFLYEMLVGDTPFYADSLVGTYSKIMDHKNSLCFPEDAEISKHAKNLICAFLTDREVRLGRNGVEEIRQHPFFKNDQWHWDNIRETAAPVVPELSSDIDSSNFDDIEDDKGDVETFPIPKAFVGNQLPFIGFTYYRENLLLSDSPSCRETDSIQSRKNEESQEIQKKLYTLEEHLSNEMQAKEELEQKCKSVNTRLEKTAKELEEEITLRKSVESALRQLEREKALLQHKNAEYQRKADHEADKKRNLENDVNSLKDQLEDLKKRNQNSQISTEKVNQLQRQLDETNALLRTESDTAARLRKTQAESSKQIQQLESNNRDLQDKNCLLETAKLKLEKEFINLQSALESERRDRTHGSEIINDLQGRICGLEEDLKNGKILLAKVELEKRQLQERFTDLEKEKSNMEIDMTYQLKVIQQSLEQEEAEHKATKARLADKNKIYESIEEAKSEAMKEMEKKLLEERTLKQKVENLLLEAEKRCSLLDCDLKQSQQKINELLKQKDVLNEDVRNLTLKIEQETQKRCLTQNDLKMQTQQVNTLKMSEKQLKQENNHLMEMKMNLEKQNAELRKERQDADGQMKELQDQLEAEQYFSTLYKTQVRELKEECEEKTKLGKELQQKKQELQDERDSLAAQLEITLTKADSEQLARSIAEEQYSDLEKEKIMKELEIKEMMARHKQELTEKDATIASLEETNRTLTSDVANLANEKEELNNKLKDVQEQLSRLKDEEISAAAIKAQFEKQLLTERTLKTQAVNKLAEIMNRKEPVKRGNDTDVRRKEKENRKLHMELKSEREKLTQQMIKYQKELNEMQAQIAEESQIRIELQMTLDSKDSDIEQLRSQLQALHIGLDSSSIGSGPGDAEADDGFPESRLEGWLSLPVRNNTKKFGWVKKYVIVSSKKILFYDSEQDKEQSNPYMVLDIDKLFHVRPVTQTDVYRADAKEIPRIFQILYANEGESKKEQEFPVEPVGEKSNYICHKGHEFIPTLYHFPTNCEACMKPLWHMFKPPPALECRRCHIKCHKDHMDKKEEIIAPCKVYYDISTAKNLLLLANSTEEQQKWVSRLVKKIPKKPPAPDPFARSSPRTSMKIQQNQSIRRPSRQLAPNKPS
MAP2K1 (human), sequence (Q02750 whole entry, looked up): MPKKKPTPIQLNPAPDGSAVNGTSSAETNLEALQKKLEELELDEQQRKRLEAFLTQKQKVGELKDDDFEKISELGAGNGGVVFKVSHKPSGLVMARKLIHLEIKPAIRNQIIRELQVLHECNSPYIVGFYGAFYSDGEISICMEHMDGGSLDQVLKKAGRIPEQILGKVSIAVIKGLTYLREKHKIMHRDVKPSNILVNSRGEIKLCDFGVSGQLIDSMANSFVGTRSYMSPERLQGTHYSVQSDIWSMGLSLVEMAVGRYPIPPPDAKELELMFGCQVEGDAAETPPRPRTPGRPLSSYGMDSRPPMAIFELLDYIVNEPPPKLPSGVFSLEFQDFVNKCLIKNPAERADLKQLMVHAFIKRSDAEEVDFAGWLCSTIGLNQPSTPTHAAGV

`COc1ccc(S(=O)(=O)N(CCO)c2ccccc2CN(C)C/C=C/c2ccc(Cl)cc2)cc1` showed a residual activity [1] of 97.9%, a residual activity [2] of 105% and a residual activity [3] of 98.1%. The residual activity [4] was 103%, the residual activity [5] was 103% and the residual activity [6] was 105%. It also gave a residual activity [7] of 94.6%, a residual activity [8] of 93.5% and a residual activity [9] of 96.7%. It also gave a residual activity [10] of 105%, a residual activity [11] of 105% and a residual activity [12] of 96.8%. The residual activity [13] was 113%, the residual activity [14] was 93.3% and the residual activity [15] was 106%. For the same compound, the residual activity [16] was 93.7%, the residual activity [17] was 97.2% and the residual activity [18] was 97.9%. The residual activity [19] was 94.3%, the residual activity [20] was 100% and the residual activity [21] was 108%. For the same compound, the residual activity [22] was 92.4%, the residual activity [23] was 90.8% and the residual activity [24] was 96.3%. For the same compound, the residual activity [25] was 103%, the residual activity [26] was 94.7% and the residual activity [27] was 106%. It also gave a residual activity [28] of 102%, a residual activity [29] of 101% and a residual activity [30] of 102%. The residual activity [31] was 97.5%, the residual activity [32] was 97.1% and the residual activity [33] was 106%. It also gave a residual activity [34] of 99.7%, a residual activity [35] of 94.6% and a residual activity [36] of 103%. It also gave a residual activity [37] of 97.4%, a residual activity [38] of 92.7% and a residual activity [39] of 102%. The residual activity [40] was 102%, the residual activity [41] was 94.2% and the residual activity [42] was 103%.
